{
  "source": "patent CN103739655A",
  "about": "“28-O-β-D-葡萄糖基化远志皂苷、其制备方法及用途” (Individual, priority 2013, dated 2014)",
  "assay_type_in_all_cases": "in vivo",
  "key": {"rat AA model (大鼠AA模型)": {"test_system": "rat AA model (大鼠AA模型)", "assay": "rat AA model (FCA-induced primary inflammation)", "details": "for 6 h swelling degree / 12 h swelling degree / 18 h swelling degree / 24 h swelling degree: intragastric from 3 days before FCA; for 6 h swelling degree: 6 h after FCA, control 0.49±0.06; for 12 h swelling degree: 12 h after FCA, control 0.54±0.07; for 18 h swelling degree: 18 h after FCA, control 0.64±0.07; for 24 h swelling degree: 24 h after FCA, control 0.50±0.06"}, "[1]": {"test_system": "xylene-induced mouse ear swelling (二甲苯所致小鼠耳肿胀模型)", "assay": "xylene-induced ear swelling model in mice", "details": "intragastric"}, "[2]": {"test_system": "carrageenan-induced rat paw swelling (角叉菜胶致大鼠足肿胀模型)", "assay": "carrageenan-induced paw swelling model in rats", "details": "intragastric; for 1 h swelling degree / 3 h swelling degree / 5 h swelling degree / 7 h swelling degree: once daily for 3 days; for 1 h swelling degree: 1 h after carrageenan, control 0.41±0.12; for 3 h swelling degree: 3 h after carrageenan, control 0.83±0.13; for 5 h swelling degree: 5 h after carrageenan, control 0.70±0.12; for 7 h swelling degree: 7 h after carrageenan, control 0.63±0.11"}, "[3]": {"details": "25, 50, 100 mg/kg, intragastric"}},
  "data": [
    {"compound": "COc1ccc2cc([C@H](C)C(=O)O)ccc2c1", "note": "[萘普生, reference compound]", "values": [
      {"measurement": "6 h swelling degree", "setting": "rat AA model (大鼠AA模型); 30 mg/kg", "result": "0.16 ± 0.09", "unit": "mL"},
      {"measurement": "12 h swelling degree", "setting": "rat AA model (大鼠AA模型); 30 mg/kg", "result": "0.22 ± 0.07", "unit": "mL"},
      {"measurement": "18 h swelling degree", "setting": "rat AA model (大鼠AA模型); 30 mg/kg", "result": "0.29 ± 0.08", "unit": "mL"},
      {"measurement": "24 h swelling degree", "setting": "rat AA model (大鼠AA模型); 30 mg/kg", "result": "0.28 ± 0.06", "unit": "mL"},
      {"measurement": "inhibition at 45 mg/kg", "setting": "[1]; Mus musculus, po, 72 h, 45 mg/kg, once daily for 3 days, ear swelling vs control, P<0.01, read-out: inhibition rate", "result": 45.7, "unit": "%"},
      {"measurement": "1 h swelling degree", "setting": "[2]; 30 mg/kg", "result": "0.08 ± 0.07", "unit": "mL"},
      {"measurement": "3 h swelling degree", "setting": "[2]; 30 mg/kg", "result": "0.21 ± 0.05", "unit": "mL"},
      {"measurement": "5 h swelling degree", "setting": "[2]; 30 mg/kg", "result": "0.13 ± 0.08", "unit": "mL"},
      {"measurement": "7 h swelling degree", "setting": "[2]; 30 mg/kg", "result": "0.12 ± 0.07", "unit": "mL"}
    ]},
    {"compound": "28-O-β-D-葡萄糖基化远志皂苷", "values": [
      {"measurement": "6 h swelling degree", "setting": "rat AA model (大鼠AA模型); 25 mg/kg (low dose)", "result": "0.45 ± 0.05", "unit": "mL"},
      {"measurement": "12 h swelling degree", "setting": "rat AA model (大鼠AA模型); 25 mg/kg (low dose)", "result": "0.51 ± 0.16", "unit": "mL"},
      {"measurement": "18 h swelling degree", "setting": "rat AA model (大鼠AA模型); 25 mg/kg (low dose)", "result": "0.61 ± 0.13", "unit": "mL"},
      {"measurement": "24 h swelling degree", "setting": "rat AA model (大鼠AA模型); 25 mg/kg (low dose)", "result": "0.46 ± 0.15", "unit": "mL"},
      {"measurement": "6 h swelling degree", "setting": "rat AA model (大鼠AA模型); 50 mg/kg (medium dose)", "result": "0.28 ± 0.05", "unit": "mL"},
      {"measurement": "12 h swelling degree", "setting": "rat AA model (大鼠AA模型); 50 mg/kg (medium dose)", "result": "0.30 ± 0.08", "unit": "mL"},
      {"measurement": "18 h swelling degree", "setting": "rat AA model (大鼠AA模型); 50 mg/kg (medium dose)", "result": "0.33 ± 0.06", "unit": "mL"},
      {"measurement": "24 h swelling degree", "setting": "rat AA model (大鼠AA模型); 50 mg/kg (medium dose)", "result": "0.27 ± 0.07", "unit": "mL"},
      {"measurement": "6 h swelling degree", "setting": "rat AA model (大鼠AA模型); 100 mg/kg (high dose)", "result": "0.15 ± 0.06", "unit": "mL"},
      {"measurement": "12 h swelling degree", "setting": "rat AA model (大鼠AA模型); 100 mg/kg (high dose)", "result": "0.19 ± 0.08", "unit": "mL"},
      {"measurement": "18 h swelling degree", "setting": "rat AA model (大鼠AA模型); 100 mg/kg (high dose)", "result": "0.30 ± 0.07", "unit": "mL"},
      {"measurement": "24 h swelling degree", "setting": "rat AA model (大鼠AA模型); 100 mg/kg (high dose)", "result": "0.25 ± 0.06", "unit": "mL"},
      {"measurement": "concentration dependence of inhibition of primary inflammation in AA rats", "setting": "rat AA model (大鼠AA模型); [3]", "result": "具有一定的浓度依赖性"},
      {"measurement": "inhibition of FCA-induced primary inflammation in AA rats", "setting": "rat AA model (大鼠AA模型); [3]", "result": "有明显的抑制作用"},
      {"measurement": "inhibition rate", "setting": "[1]; 25 mg/kg (low dose), once daily for 3 days, ear swelling vs control, P<0.05", "result": 6.5, "unit": "%"},
      {"measurement": "inhibition rate", "setting": "[1]; 50 mg/kg (medium dose), once daily for 3 days, ear swelling vs control, P<0.01", "result": 39.1, "unit": "%"},
      {"measurement": "inhibition rate", "setting": "[1]; 100 mg/kg (high dose), once daily for 3 days, ear swelling vs control, P<0.01", "result": 48.4, "unit": "%"},
      {"measurement": "inhibition of xylene-induced acute inflammation of mouse auricle", "setting": "[1]; 25, 50, 100 mg/kg", "result": "能抑制"},
      {"measurement": "1 h swelling degree", "setting": "[2]; 25 mg/kg (low dose)", "result": "0.33 ± 0.05", "unit": "mL"},
      {"measurement": "3 h swelling degree", "setting": "[2]; 25 mg/kg (low dose)", "result": "0.64 ± 0.16", "unit": "mL"},
      {"measurement": "5 h swelling degree", "setting": "[2]; 25 mg/kg (low dose)", "result": "0.48 ± 0.13", "unit": "mL"},
      {"measurement": "7 h swelling degree", "setting": "[2]; 25 mg/kg (low dose)", "result": "0.33 ± 0.07", "unit": "mL"},
      {"measurement": "1 h swelling degree", "setting": "[2]; 50 mg/kg (medium dose)", "result": "0.17 ± 0.05", "unit": "mL"},
      {"measurement": "3 h swelling degree", "setting": "[2]; 50 mg/kg (medium dose)", "result": "0.45 ± 0.12", "unit": "mL"},
      {"measurement": "5 h swelling degree", "setting": "[2]; 50 mg/kg (medium dose)", "result": "0.39 ± 0.07", "unit": "mL"},
      {"measurement": "7 h swelling degree", "setting": "[2]; 50 mg/kg (medium dose)", "result": "0.19 ± 0.05", "unit": "mL"},
      {"measurement": "1 h swelling degree", "setting": "[2]; 100 mg/kg (high dose)", "result": "0.11 ± 0.05", "unit": "mL"},
      {"measurement": "3 h swelling degree", "setting": "[2]; 100 mg/kg (high dose)", "result": "0.37 ± 0.13", "unit": "mL"},
      {"measurement": "5 h swelling degree", "setting": "[2]; 100 mg/kg (high dose)", "result": "0.31 ± 0.08", "unit": "mL"},
      {"measurement": "7 h swelling degree", "setting": "[2]; 100 mg/kg (high dose)", "result": "0.16 ± 0.09", "unit": "mL"},
      {"measurement": "concentration dependence of inhibition of rat paw swelling", "setting": "[2]; 25, 50, 100 mg/kg", "result": "具有一定的浓度依赖性"},
      {"measurement": "inhibition of carrageenan-induced rat paw swelling", "setting": "[2]; 25, 50, 100 mg/kg", "result": "有抑制作用"}
    ]}
  ]
}
